Experimental data from ChEMBL document CHEMBL6134890, “Terminally Symmetric β-Turn Peptides for Multidrug-Resistant Bacterial Infections” (J Med Chem, 2025).
Converted amounts (≈) assume the structure as drawn. The source made the active and inactive calls. The rule behind the calls is not given here. Peptide text beside a SMILES is read from it.

Experiments:
Cell membrane [1] = test: Disruption of cell membrane in multi-drug resistant Escherichia coli assessed as increase in red fluorescence intensity of PI at 2 times MIC measured for 2 hrs by fluorescence confocal microscopic imaging based analysis; assay type: subcellular
Cell membrane [2] = test: Disruption of cell membrane in multi-drug resistant Escherichia coli assessed as release of cell content at 2 times MIC measured for 120 mins by transmission electron microscopy analysis; assay type: subcellular
Escherichia coli [3] = test: Antibacterial activity against multidrug resistant Escherichia coli infected in male Kunming mouse model assessed as recovery of mouse weight measured after 11 days in presence of levofloxacin; assay type: functional, organism-based; details: time 11.0 day
Escherichia coli [4] = test: Antibacterial activity against multidrug resistant Escherichia coli infected in male Kunming mouse model assessed as reduction in IL-6 expression in presence of levofloxacin by immunochemical analysis; assay type: functional, organism-based
Escherichia coli [5] = test: Antibacterial activity against multidrug resistant Escherichia coli infected in male Kunming mouse model assessed as reduction in vascular congestion in presence of levofloxacin by H and E staining based analysis; assay type: functional, organism-based
Staphylococcus aureus [6] = test: Antimicrobial activity against multi-drug resistant Staphylococcus aureus assessed as reduction in bacterial growth in presence of MgCl2; assay type: functional, organism-based
Escherichia coli [7] = test: Antibacterial activity against multidrug resistant Escherichia coli infected in male Kunming mouse model assessed as reduction in bacterial load measured after 11 days in presence of levofloxacin; assay type: functional, organism-based; details: time 11.0 day
Cell membrane [8] = test: Disruption of cell membrane in multi-drug resistant Escherichia coli assessed as stomatal formation at 2 times MIC measured for 120 mins by transmission electron microscopy analysis; assay type: subcellular
Escherichia coli [9] = test: Antimicrobial activity against multi-drug resistant Escherichia coli assessed as reduction in bacterial growth at 2 times MIC measured after 1 hrs in presence of trypsin by microplate reader based analysis; assay type: functional, organism-based
[10] = Half life of the compound in 25% plasma; assay type: ADME, cell-free
Cell membrane [11] = test: Disruption of cell membrane in multi-drug resistant Staphylococcus aureus assessed as cell shrinkage at 2 times MIC measured for 120 mins by transmission electron microscopy analysis; assay type: subcellular
Escherichia coli [12] = test: Antibacterial activity against multidrug resistant Escherichia coli infected in male Kunming mouse model assessed as scabs thickening measured after 7 days by caliper method; assay type: functional, organism-based; details: time 7.0 day
[13] = Hemolytic activity in human Red blood cell assessed as hemolysis incubated for 1 hrs by microplate reader based analysis; assay type: toxicity; details: erythrocyte
Cell membrane [14] = test: Disruption of cell membrane in multi-drug resistant Staphylococcus aureus assessed as appearance of ruptured cell membrane at 2 times MIC measured for 120 mins by transmission electron microscopy analysis; assay type: subcellular
Escherichia coli [15] = test: Antibacterial activity against multidrug resistant Escherichia coli infected in male Kunming mouse model assessed as reduction in wound size measured after 3 to 5 days in presence of levofloxacin by caliper method; assay type: functional, organism-based; details: time 3-5 day
[16] = test system: Staphylococcus epidermidis; test: Antimicrobial activity against multi-drug resistant Staphylococcus epidermidis assessed as reduction in bacterial growth by broth dilution method; assay type: functional
Escherichia coli [17] = test: Bactericidal activity against multi-drug resistant Escherichia coli assessed as eradication of bacterial growth at 2 times MIC by time-kill kinetic assay; assay type: functional, organism-based; details: time 120-720 min
Escherichia coli [18] = test: Antibiofilm activity against multi-drug resistant Escherichia coli measured after 24 hrs by crystal violet staining based analysis; assay type: functional, organism-based
Escherichia coli [19] = test: Antibacterial activity against Escherichia coli ATCC 25922 infected in male Kunming mouse model assessed as reduction in bacterial load measured after 11 days; assay type: functional, organism-based; details: time 11.0 day
Escherichia coli [20] = test: Antibacterial activity against multidrug resistant Escherichia coli infected in male Kunming mouse model assessed as wound healing measured after 11 days by caliper method relative to control; assay type: functional; details: time 11 day
Cell membrane [21] = test: Induction of cytoplasmic membrane depolarization in multi-drug resistant Escherichia coli at 1 to 4 times MIC measured within 1 min by DiSC3-5 fluorescent dye based analysis
Escherichia coli [22] = test: Antibiofilm activity in […] assessed as eradication of formed biofilm at 1 to 4 times MIC measured after 12 hrs by confocal microscopy based analysis; assay type: functional, organism-based
Escherichia coli [23] = test: Antibacterial activity against multidrug resistant Escherichia coli infected in male Kunming mouse model assessed as reduction in IL-6 expression by immunochemical analysis; assay type: functional, organism-based
Escherichia coli [24] = test: Antibacterial activity against Escherichia coli ATCC 25922 infected in male Kunming mouse model assessed as reduction in bacterial load measured after 11 days in presence of levofloxacin; assay type: functional, organism-based; details: time 11.0 day
Staphylococcus aureus [25] = test: Antibiofilm activity in methicillin-resistant Staphylococcus aureus assessed as eradication of formed biofilm at 1 to 4 times MIC measured after 12 hrs by confocal microscopy based analysis; assay type: functional, organism-based
L02 = test: Cytotoxicity against human LO2 cells at 2 to 256 uM measured after 24 hrs by CCK-8 method; assay type: toxicity, cell-based; details: l02, 24 h, dose 2-256 µM
Escherichia coli [26] = test: Antibacterial activity against multidrug resistant Escherichia coli infected in male Kunming mouse model assessed as reduction in tissue hemorrhage by H and E staining based analysis; assay type: functional, organism-based
Escherichia coli [27] = test: Antimicrobial activity against multi-drug resistant Escherichia coli assessed as reduction in bacterial growth at 2 times MIC measured after 1 hrs in presence of chymotrypsin by microplate reader based analysis; assay type: functional, organism-based
Staphylococcus aureus [28] = test: Antimicrobial activity against multi-drug resistant Staphylococcus aureus assessed as reduction in bacterial growth at 2 times MIC measured after 1 hrs in presence of chymotrypsin by microplate reader based analysis; assay type: functional, organism-based

CC[C@H](C)[C@H](NC(=O)[C@H](CCCCN)NC(=O)[C@@H](NC(=O)[C@H](CCCCN)NC(=O)[C@@H]1CCCN1C(=O)[C@H](Cc1c[nH]c2ccccc12)NC(=O)[C@H](Cc1c[nH]c2ccccc12)NC(=O)[C@H](Cc1c[nH]c2ccccc12)NC(=O)[C@@H]1CCCN1C(=O)[C@H](CCCCN)NC(=O)[C@@H](NC(=O)[C@H](CCCCN)NC(=O)[C@@H](NC(=O)[C@@H](N)CCCCN)[C@@H](C)CC)[C@@H](C)CC)[C@@H](C)CC)C(=O)N[C@@H](CCCCN)C(N)=O (H-KIKIKPWWWPKIKIK-NH2)
Activity (Cell membrane [1]): Active
Activity (Cell membrane [2]): Active
Activity (Escherichia coli [3]): Active
Activity (Escherichia coli [4]): Active
Activity (Escherichia coli [5]): Active
Activity (Staphylococcus aureus [6]): Active
Activity (Escherichia coli [7]): Active
Activity (Cell membrane [8]): Active
Activity (Escherichia coli [9]): inactive
half-life [10]: 75.5 h
Activity (Cell membrane [11]): Active
Activity (Escherichia coli [12]): Active
HC10 [13]: > 256 µM
Activity (Cell membrane [14]): Active
Activity (Escherichia coli [15]): Active
MIC [16]: 4 µM (≈ 7.97 µg/mL)
Activity (Escherichia coli [17]): Time-dependent-effect
Activity (Escherichia coli [18]): Dose-dependent-effect
Activity (Escherichia coli [19]): Active
Activity (Escherichia coli [20]): 100%
Activity (Cell membrane [21]): Active
Activity (Escherichia coli [22]): Active
Activity (Escherichia coli [23]): Active
Activity (Escherichia coli [24]): Active
Activity (Staphylococcus aureus [25]): Active
Activity (L02): Toxic
Activity (Escherichia coli [26]): Active
Activity (Escherichia coli [27]): inactive
Activity (Staphylococcus aureus [28]): inactive
